Measured values reported in the NIST ThermoML archive (doi:10.1021/acs.jced.7b00520).

Test: mn = molality of the nth substance listed, in mol/kg
Settings: 101.3 kPa, Liquid; for viscosity: Capillary tube (Ostwald / Ubbelohde) method; for mass density: Vibrating tube method

Cn1cnc2c1c(=O)[nH]c(=O)n2C [1H-purine-2,6-dione, 3,7-dihydro-3,7-dimethyl-] + O
Settings | mass density, 288.15 K [kg/m3] | mass density, 298.15 K [kg/m3] | mass density, 308.15 K [kg/m3] | mass density, 318.15 K [kg/m3] | viscosity, 288.15 K [mPa·s] | viscosity, 298.15 K [mPa·s] | viscosity, 308.15 K [mPa·s] | viscosity, 318.15 K [mPa·s]
m1 = 0.00051 | 999.157 | 997.073 | 994.088 | 990.268 | 1.138 | 0.891 | 0.72 | 0.597
m1 = 0.0007 | 999.167 | 997.083 | 994.097 | 990.277 | 1.139 | 0.891 | 0.72 | 0.597
m1 = 0.0009 | 999.177 | 997.093 | 994.107 | 990.287 | 1.139 | 0.891 | 0.72 | 0.597
m1 = 0.00098 | 999.182 | 997.097 | 994.111 | 990.291 | 1.139 | 0.891 | 0.72 | 0.597
m1 = 0.00123 | 999.195 | 997.11 | 994.123 | 990.303 | 1.139 | 0.891 | 0.72 | 0.597
m1 = 0.00147 | – | – | – | – | 1.139 | 0.891 | 0.72 | 0.597
m1 = 0.00148 | 999.209 | 997.123 | 994.135 | 990.314 | – | – | – | –
m1 = 0.00182 | – | – | – | – | 1.139 | 0.891 | 0.72 | 0.597
m1 = 0.00183 | 999.228 | 997.141 | 994.152 | 990.331 | – | – | – | –
m1 = 0.00212 | – | – | – | – | 1.139 | 0.891 | 0.72 | 0.597
m1 = 0.00213 | 999.244 | 997.156 | 994.167 | 990.346 | – | – | – | –

Cn1c(=O)c2[nH]cnc2n(C)c1=O [3,7-dihydro-1,3-dimethyl-1H-purine-2,6-dione] + O
Settings | mass density, 288.15 K [kg/m3] | mass density, 298.15 K [kg/m3] | mass density, 308.15 K [kg/m3] | mass density, 318.15 K [kg/m3] | viscosity, 288.15 K [mPa·s] | viscosity, 298.15 K [mPa·s] | viscosity, 308.15 K [mPa·s] | viscosity, 318.15 K [mPa·s]
m1 = 0.00208 | 999.241 | 997.153 | 994.165 | 990.343 | – | – | – | –
m1 = 0.00213 | – | – | – | – | 1.139 | 0.891 | 0.719 | 0.597
m1 = 0.00284 | – | – | – | – | 1.139 | 0.892 | 0.72 | 0.597
m1 = 0.00285 | 999.283 | 997.192 | 994.204 | 990.379 | – | – | – | –
m1 = 0.00378 | 999.333 | 997.239 | 994.25 | 990.423 | – | – | – | –
m1 = 0.00394 | – | – | – | – | 1.14 | 0.892 | 0.72 | 0.598
m1 = 0.00479 | 999.388 | 997.291 | 994.3 | 990.472 | – | – | – | –
m1 = 0.00519 | – | – | – | – | 1.14 | 0.892 | 0.721 | 0.598
m1 = 0.00578 | 999.443 | 997.341 | 994.35 | 990.519 | – | – | – | –
m1 = 0.00617 | – | – | – | – | 1.141 | 0.893 | 0.722 | 0.599
m1 = 0.00689 | – | – | – | – | 1.141 | 0.893 | 0.722 | 0.599
m1 = 0.00699 | 999.509 | 997.404 | 994.41 | 990.578 | – | – | – | –
m1 = 0.00776 | 999.551 | 997.443 | 994.448 | 990.614 | – | – | – | –
m1 = 0.00819 | – | – | – | – | 1.142 | 0.894 | 0.723 | 0.599
m1 = 0.00921 | – | – | – | – | 1.142 | 0.895 | 0.723 | 0.6
m1 = 0.00934 | 999.638 | 997.526 | 994.528 | 990.691 | – | – | – | –
m1 = 0.00986 | 999.667 | 997.554 | 994.554 | 990.716 | – | – | – | –

Cn1c(=O)c2c(ncn2C)n(C)c1=O [caffeine] + O
Settings | mass density, 288.15 K [kg/m3] | mass density, 298.15 K [kg/m3] | mass density, 308.15 K [kg/m3] | mass density, 318.15 K [kg/m3] | viscosity, 288.15 K [mPa·s] | viscosity, 298.15 K [mPa·s] | viscosity, 308.15 K [mPa·s] | viscosity, 318.15 K [mPa·s]
m1 = 0.00508 | – | – | – | – | 1.14 | 0.895 | 0.723 | 0.599
m1 = 0.0051 | 999.404 | 997.304 | 994.303 | 990.464 | – | – | – | –
m1 = 0.00693 | – | – | – | – | 1.142 | 0.896 | 0.724 | 0.6
m1 = 0.00695 | 999.505 | 997.399 | 994.39 | 990.545 | – | – | – | –
m1 = 0.009 | – | – | – | – | 1.144 | 0.896 | 0.724 | 0.601
m1 = 0.00902 | 999.619 | 997.504 | 994.488 | 990.637 | – | – | – | –
m1 = 0.01986 | – | – | – | – | 1.147 | 0.9 | 0.728 | 0.606
m1 = 0.01993 | 1000.22 | 998.06 | 995.013 | 991.121 | – | – | – | –
m1 = 0.02978 | – | – | – | – | 1.152 | 0.905 | 0.732 | 0.609
m1 = 0.02992 | 1000.77 | 998.576 | 995.497 | 991.571 | – | – | – | –
m1 = 0.03531 | 1001.07 | 998.853 | 995.759 | 991.812 | – | – | – | –
m1 = 0.03533 | – | – | – | – | 1.154 | 0.907 | 0.735 | 0.611
m1 = 0.03983 | – | – | – | – | 1.156 | 0.91 | 0.737 | 0.613
m1 = 0.04008 | 1001.34 | 999.101 | 996.001 | 992.025 | – | – | – | –
m1 = 0.04953 | – | – | – | – | 1.162 | 0.914 | 0.741 | 0.617
m1 = 0.04992 | 1001.89 | 999.619 | 996.484 | 992.483 | – | – | – | –
